Structures can show the parent of a compound that is named as a salt.

As for `NC(=O)N(O)CCC#Cc1ccc(OCCCN2CCN(C(c3ccc(F)cc3)c3ccc(F)cc3)CC2)cc1` [Compound 83, amino-N-{4-[4-(3-{4-[bis(4-fluorophenyl)methyl]piperazinyl}propoxy)phenyl]but-3-ynyl}-N-hydroxyamide], the melting point (in general, the temperature of the solid-liquid transition) came out at 78 °C. For `NC(=O)c1cc(CCCCN(O)C(N)=O)ccc1OCCCN1CCN([C@H](c2ccccc2)c2ccc(Cl)cc2)CC1` [Compound 84, 2-(3-{4-[(1R)(4-chlorophenyl)phenylmethyl]piperazinyl}propoxy)-5-[4-(aminohydroxycarbonyl-amino)butyl]benzamide] the value was 123 to 125 °C; for `NC(=O)c1cc(C#CCCN(O)C(N)=O)ccc1OCCN1CCN([C@H](c2ccccc2)c2ccc(Cl)cc2)CC1` [Compound 35, 2-(2-{4-[(1R)(4-chlorophenyl)phenylmethyl]piperazinyl}ethoxy)-5-[4-(aminohydroxycarbonyl-amino)but-1-ynyl]benzamide], 156 to 158 °C; for `NC(=O)N(O)CCC#Cc1ccc(OCCN2CCN([C@H](c3ccccc3)c3ccc(Cl)cc3)CC2)cc1[N+](=O)[O-]` [Compound 90, N-{4-[4-(2-{4-[(R)-(4-chlorophenyl)(phenyl)methyl]-1-piperazinyl}ethoxy)-2-nitrophenyl]-3-butynyl}-N-hydroxyurea], 70 to 75 °C.

For the molecule `NC(=O)c1cc(CCCCN(O)C(N)=O)ccc1OCCN1CCN(C(c2ccc(F)cc2)c2ccc(F)cc2)CC1` [Compound 85, 5-{4-[(aminocarbonyl) (hydroxy)amino]butyl}-2-(2-{4-[bis(4-fluorophenyl)methyl]-1-piperazinyl}ethoxy)benzamide], the melting point was in the range of 138 to 140 °C. As for `CC(=O)Nc1cc(C#CCCN(O)C(N)=O)ccc1OCCN1CCN([C@H](c2ccccc2)c2ccc(Cl)cc2)CC1` [Compound 77, N-[2-(2-{4-[(1R)(4-chlorophenyl)phenylmethyl]piperazinyl}ethoxy)-5-[4-(aminohydroxycarbonyl-amino)but-1-ynyl]phenyl] acetamide], the figure is 90 to 95 °C; as for `NC(=O)N(O)CCCCc1ccc(OCCCCN2CCN([C@H](c3ccccc3)c3ccc(Cl)cc3)CC2)cc1` (as salt: HCl) [Compound 76, N-{4-[4-(4-{4-[(1R)(4-chlorophenyl)phenylmethyl]piperazinyl}butoxy)phenyl]butyl}amino-N-hydroxyamide], 121 to 123 °C; as for `NC(=O)N(O)CCC#Cc1ccc(OCCCCN2CCN(C(c3ccc(F)cc3)c3ccc(F)cc3)CC2)cc1` [Compound 80, amino-N-{4-[4-(4-{4-[bis(4-fluorophenyl)methyl]piperazinyl}butoxy)phenyl]but-3-ynyl}-N-hydroxyamide], 64 to 68 °C. For `NC(=O)N(O)CCCCc1ccc(OCCCN2CCN([C@H](c3ccccc3)c3ccc(Cl)cc3)CC2)cc1` [Compound 79, N-{4-[4-(3-{4-[(1R)(4-chlorophenyl)phenylmethyl]piperazinyl}propoxy)phenyl]butyl}amino-N-hydroxyamide] the value was 60 to 65 °C; for `NC(=O)c1cc(C#CCCN(O)C(N)=O)ccc1OCCCN1CCN([C@H](c2ccccc2)c2ccc(Cl)cc2)CC1` [Compound 62, 2-[3-{4-[(1R)(4-chlorophenyl)phenylmethyl]piperazinyl}propoxy)-5-[4-(aminohydroxycarbonyl-amino)but-1-ynyl]benzamide], 153 to 155 °C; for `NC(=O)c1cc(C#CCCN(O)C(N)=O)ccc1OCCN1CCN([C@H](c2ccccc2)c2ccc(Cl)cc2)CC1` (as salt: citrate) [Compound 93, 5-{4-[(aminocarbonyl) (hydroxy)amino]-1-butynyl}-2-(2-{4-[(R)-(4-chlorophenyl)(phenyl)methyl]-1-piperazinyl}ethoxy)benzamide], 153 to 156 °C.

Regarding `NC(=O)N(O)CCCOc1ccc(CCCN2CCN([C@H](c3ccccc3)c3ccc(Cl)cc3)CC2)cc1` [Compound 94, N-{3-[4-[3-{4-[(R)-(4-chlorophenyl)(phenyl)methyl]-1-piperazinyl}propyl]phenoxy]propyl}-N-hydroxyurea], the melting point lay within 64 to 66 °C. For `NC(=O)c1cc(C#CCCN(O)C(N)=O)ccc1OCCN1CCN([C@H](c2ccccc2)c2ccc(Cl)cc2)CC1` (as salt: fumarate) [Compound 89, 5-{4-[(aminocarbonyl) (hydroxy)amino]-1-butynyl}-2-(2-{4-[(R)-(4-chlorophenyl)(phenyl)methyl]-1-piperazinyl}ethoxy)benzamide], the melting point was in the range of 162 to 165 °C. As for `NC(=O)N(O)CCC#Cc1ccc(OCC#CCN2CCN([C@H](c3ccccc3)c3ccc(Cl)cc3)CC2)cc1` [Compound 95, N-(4-{4-[(4-{4-[(R)(4-chlorophenyl)(phenyl)methyl]-1-piperazinyl}-2-butynyl)oxy]phenyl}-3-butynyl)-N-hydroxyurea], the figure is 127 to 130 °C. As for `NC(=O)c1cc(C#CCCN(O)C(N)=O)ccc1OCCN1CCN([C@H](c2ccccc2)c2ccc(Cl)cc2)CC1` (as salt: HCl) [Compound 64, 2-(2-{4-[(1R)(4-chlorophenyl)phenylmethyl]piperazinyl}ethoxy)-5-[4-(aminohydroxycarbonyl-amino)but-1-ynyl]benzamide], the figure is 208 °C; as for `NC(=O)c1cc(C#CCCN(O)C(N)=O)ccc1OCCN1CCN([C@H](c2ccccc2)c2ccc(Cl)cc2)CC1` (as salt: maleate) [Compound 91, 5-{4-[(aminocarbonyl) (hydroxy)amino]-1-butynyl}-2-(2-{4-[(R)-(4-chlorophenyl)(phenyl)methyl]-1-piperazinyl}ethoxy)benzamide], 169 to 172 °C. For `NC(=O)N(O)CCC#Cc1ccc(OCCN2CCN(C(c3ccc(F)cc3)c3ccc(F)cc3)CC2)cc1[N+](=O)[O-]` [Compound 87, N-{4-[4-(2-{4-[bis(4-fluorophenyl)methyl]-1-piperazinyl}ethoxy)-2-nitrophenyl]-3-butynyl}-N-hydroxyurea] the value was 65 to 70 °C. Turning to `NC(=O)c1cc(C#CCCN(O)C(N)=O)ccc1OCCN1CCN([C@H](c2ccccc2)c2ccc(Cl)cc2)CC1` (as salt: tartrate) [Compound 92, 5-{4-[(aminocarbonyl) (hydroxy)amino]-1-butynyl}-2-(2-{4-[(R)-(4-chlorophenyl)(phenyl)methyl]-1-piperazinyl}ethoxy)benzamide], the melting point fell in the range of 155 to 158 °C. `NC(=O)N(O)CCCc1ccc(OCCCN2CCN([C@H](c3ccccc3)c3ccc(Cl)cc3)CC2)cc1` [Compound 82, N-{3-[4-(3-{4-[(1R)(4-chlorophenyl)phenylmethyl]piperazinyl}propoxy)phenyl]propyl}amino-N-hydroxyamide]: the melting point was in the range of 52 to 90 °C. For `NC(=O)N(O)CCCCc1ccc(OCCN2CCN(C(c3ccc(F)cc3)c3ccc(F)cc3)CC2)cc1` [Compound 88, N-{4-[4-(2-{4-[bis(4-fluorophenyl)methyl]-1-piperazinyl}ethoxy)phenyl]butyl}-N-hydroxyurea] the value was 140 to 145 °C; for `NC(=O)N(O)CCCc1ccc(OCCCN2CCN(C(c3ccc(F)cc3)c3ccc(F)cc3)CC2)cc1` [Compound 86, N-{3-[4-(3-{4-[bis(4-fluorophenyl)methyl]-1-piperazinyl}propoxy)phenyl]propyl}-N-hydroxyurea], 30 to 80 °C. As for `NC(=O)N(O)CCCCc1ccc(OCCN2CCN([C@H](c3ccccc3)c3ccc(Cl)cc3)CC2)cc1` [Compound 17, N-{4-[4-(2-{4-[(1R)(4-chlorophenyl)phenylmethyl]piperazinyl}ethoxy)phenyl]butyl}amino-N-hydroxyamide], the figure is 148 to 150 °C.

The values above are taken from patent US6894059B1, “Compounds and methods for treatment of asthma, allergy and inflammatory disorders” (UCB S.A., priority 1999, dated 2005).
